Tested on: MCH receptors
Test: MCH receptor activity class (method not given)
[1] = class by percent of control at 10^−7 M or IC50
[2] = activity class per percent of control at 10^-7 M or IC50
[3] = class by percent of control at 10^-7 M or IC50
[4] = activity class 1-3: percent of control at 10^-7 M or IC50
[5] = MCH receptor, class by percent of control at 10^-7 M or IC50

Compound | class [3] | further results
COc1cc(OC)cc(C(=O)N[C@H]2CC[C@@H](CNc3nc(C)cc(N(C)C)n3)CC2)c1 [compound 2736] | – | class [1]: 3 (Class 3 The value of percent of control at 10^−7 M was more than 60% or the value of IC50 was more than 200 nM.)
CN(C)c1cc(N[C@H]2CC[C@@H](CNCc3c[nH]nc3-c3ccc(C(F)(F)F)cc3)CC2)nc2ccccc12 [compound 1135] | – | class [2]: 3 (Class 3 The value of percent of control at 10^−7 M was more than 60% or the value of IC50 was more than 200 nM.)
CN(C)c1ccnc(N[C@H]2CC[C@@H](NC(=O)C3C[C@H]3c3ccccc3)CC2)n1 (some centres unmarked) [compound 264] | 3 (Class 3 The value of percent of control at 10^−7 M was more than 60% or the value of IC50 was more than 200 nM.) | –
COc1ccc(CNC[C@H]2CC[C@@H](Nc3nccc(N(C)C)n3)CC2)c(OC)c1OC [compound 1253] | 1 (Class 1: The value of percent of control at 10^−7 M was less than 40% or the value of IC50 was less than 50 nM.) | –
Cc1ccc(C(=O)N[C@H]2CC[C@@H](CNc3nc(C)cc(N(C)C)n3)CC2)cc1 [compound 2733] | – | class [1]: 3 (Class 3 The value of percent of control at 10^−7 M was more than 60% or the value of IC50 was more than 200 nM.)
CN(C)c1cc(N[C@H]2CC[C@@H](CNCc3cc(Cl)cc(Cl)c3)CC2)nc2ccccc12 [compound 1187] | 3 (Class 3 The value of percent of control at 10^−7 M was more than 60% or the value of IC50 was more than 200 nM.) | –
Cc1cnc(N[C@H]2CC[C@@H](NC(=O)c3ccc(F)cc3)CC2)nc1N(C)C [compound 2899, N-(cis-4-{[4-(dimethylamino)-5-methylpyrimidin-2-yl]amino}cyclohexyl)-4-fluorobenzamide] | – | class [1]: 1 (Class 1: The value of percent of control at 10^−7 M was less than 40% or the value of IC50 was less than 50 nM.)
CN(C)c1cc(N[C@H]2CC[C@@H](CNC(=O)Nc3ccc(F)c(F)c3)CC2)nc2ccccc12 [compound 2402] | – | class (MCH receptor activity class 1-3 (percent of control at 10^-7 M or IC50)): 3 (Class 3 The value of percent of control at 10^−7 M was more than 60% or the value of IC50 was more than 200 nM.)
CN(C)c1ccnc(N[C@H]2CC[C@@H](NC(=O)C3=Cc4cc(Cl)ccc4OC3)CC2)n1 [compound 361, 6-chloro-N-(cis-4-{[4-(dimethylamino)pyrimidin-2-yl]amino}cyclohexyl)-2H-chromene-3-carboxamide] | 2 (Class 2: The value of percent of control at 10^−7 M was from 40% to 60% or the value of IC′50 was from 50 nM to 200 nM.) | –
COc1cc(OC)c(NC(=O)N[C@H]2CC[C@@H](Nc3nccc(N(C)C)n3)CC2)cc1Cl [compound 2247] | 1 (Class 1: The value of percent of control at 10^−7 M was less than 40% or the value of IC50 was less than 50 nM.) | –
CN(C)c1nc(N[C@H]2CC[C@@H](CNC(=O)c3ccc(I)o3)CC2)nc2c1CCCC2 [compound 1068] | – | class [2]: 3 (Class 3 The value of percent of control at 10^−7 M was more than 60% or the value of IC50 was more than 200 nM.)
CN(C)c1nc(N[C@H]2CC[C@@H](CNC(=O)c3ccccc3Br)CC2)nc2c1CCCC2 [compound 655] | 3 (Class 3 The value of percent of control at 10^−7 M was more than 60% or the value of IC50 was more than 200 nM.) | –
CN(C)c1nc(N[C@H]2CC[C@@H](NC(=O)c3csc([N+](=O)[O-])c3)CC2)nc2c1CCCC2 [compound 1043] | – | class [2]: 1 (Class 1: The value of percent of control at 10^−7 M was less than 40% or the value of IC50 was less than 50 nM.)
CCCCNC(=O)N[C@H]1CC[C@@H](Nc2nc3c(c(N(C)C)n2)CCCC3)CC1 [compound 1695] | – | class [4]: 3 (Class 3 The value of percent of control at 10^−7 M was more than 60% or the value of IC50 was more than 200 nM.)
Cc1ccc(C(=O)N[C@H]2CC[C@@H](Nc3cc(N(C)C)c4ccccc4n3)CC2)cc1F [compound 74, N-(cis-4-{[4-(dimethylamino)quinolin-2-yl]amino}cyclohexyl)-3-fluoro-4-methylbenzamide] | – | class [5]: 2 (Class 2: The value of percent of control at 10^−7 M was from 40% to 60% or the value of IC′50 was from 50 nM to 200 nM.)
CN(C)c1ccnc(N[C@H]2CC[C@@H](NC(=O)c3cccnc3Oc3ccccc3)CC2)n1 [compound 353, N-(cis-4-{[4-(dimethylamino)pyrimidin-2-yl]amino}cyclohexyl)-2-phenoxynicotinamide] | 2 (Class 2: The value of percent of control at 10^−7 M was from 40% to 60% or the value of IC′50 was from 50 nM to 200 nM.) | –
CCc1ccccc1CNC[C@H]1CC[C@@H](Nc2nccc(N(C)C)n2)CC1 [compound 1322] | 3 (Class 3 The value of percent of control at 10^−7 M was more than 60% or the value of IC50 was more than 200 nM.) | –
Cc1ccc(C(=O)NC[C@H]2CC[C@@H](Nc3nccc(N(C)C)n3)CC2)cc1[N+](=O)[O-] [compound 388] | 3 (Class 3 The value of percent of control at 10^−7 M was more than 60% or the value of IC50 was more than 200 nM.) | –

Compound | class [3] | further results
CN(C)c1nc(N[C@H]2CC[C@@H](NC(=O)Nc3ccccc3Cc3ccccc3)CC2)nc2c1CCCC2 [compound 1851] | 3 (Class 3 The value of percent of control at 10^−7 M was more than 60% or the value of IC50 was more than 200 nM.) | –
CC(C)[C@@H]1CC[C@@H](C)CC1OC(=O)N[C@H]1CC[C@@H](Nc2nccc(N(C)C)n2)CC1 (some centres unmarked) [compound 1633] | – | class [4]: 3 (Class 3 The value of percent of control at 10^−7 M was more than 60% or the value of IC50 was more than 200 nM.)
Cc1cc(C)c(CNC[C@H]2CC[C@@H](Nc3nccc(N(C)C)n3)CC2)c(C)c1 [compound 1302] | 3 (Class 3 The value of percent of control at 10^−7 M was more than 60% or the value of IC50 was more than 200 nM.) | –
CN(C)c1cc(N[C@H]2CC[C@@H](NC(=O)c3cc(F)c(F)c(F)c3F)CC2)nc2ccccc12 [compound 128] | – | class [5]: 3 (Class 3 The value of percent of control at 10^−7 M was more than 60% or the value of IC50 was more than 200 nM.)
Cc1cc(C)c(NC(=O)N[C@H]2CC[C@@H](Nc3nccc(N(C)C)n3)CC2)c(C)c1 [compound 2187, N-(cis-4-{[4-(dimethylamino)pyrimidin-2-yl]amino}cyclohexyl)-N′-mesitylurea] | 2 (Class 2: The value of percent of control at 10^−7 M was from 40% to 60% or the value of IC′50 was from 50 nM to 200 nM.) | –
Cc1cnc(N[C@H]2CC[C@@H](CNC(=O)c3ccc(-c4ccccc4)cc3)CC2)nc1N(C)C [compound 2709] | – | class [1]: 3 (Class 3 The value of percent of control at 10^−7 M was more than 60% or the value of IC50 was more than 200 nM.)
CN(C)c1cc(N[C@H]2CC[C@@H](CNC(=O)c3ccc(-c4ccccc4)cc3)CC2)nc2ccccc12 [compound 219] | 3 (Class 3 The value of percent of control at 10^−7 M was more than 60% or the value of IC50 was more than 200 nM.) | –
CN(C)c1ccnc(NC2CCC(NC(=O)OCc3ccccc3)CC2)n1 (centres unmarked) [compound 273] | 3 (Class 3 The value of percent of control at 10^−7 M was more than 60% or the value of IC50 was more than 200 nM.) | –
CCOC(=O)[C@H](CC(C)C)NC(=O)N[C@H]1CC[C@@H](Nc2nccc(N(C)C)n2)CC1 (relative stereo) [compound 2183] | 3 (Class 3 The value of percent of control at 10^−7 M was more than 60% or the value of IC50 was more than 200 nM.) | –
Cc1cnc(N[C@H]2CC[C@@H](C(=O)N[C@H](C)c3cccc4ccccc34)CC2)nc1N(C)C [compound 2782, cis-4-{[4-(dimethylamino)-5-methylpyrimidin-2-yl]amino}-N-[(1R)-1-(1-naphthyl)ethyl]cyclohexanecarboxamide] | – | class [1]: 1 (Class 1: The value of percent of control at 10^−7 M was less than 40% or the value of IC50 was less than 50 nM.)
CCOc1cc(OCC)cc(C(=O)N[C@H]2CC[C@@H](Nc3nc(C)cc(N(C)C)n3)CC2)c1 [compound 2975, N-(cis-4-{[4-(dimethylamino)-6-methylpyrimidin-2-yl]amino}cyclohexyl)-3,5-diethoxybenzamide] | – | class [1]: 1 (Class 1: The value of percent of control at 10^−7 M was less than 40% or the value of IC50 was less than 50 nM.)
Cc1cc(C(=O)NC[C@H]2CC[C@@H](Nc3nccc(N(C)C)n3)CC2)nn1C(C)(C)C [compound 435, 1-tert-butyl-N-[(cis-4-{[4-(dimethylamino)pyriniidin-2-yl]amino}cyclohexyl)methyl]-5-methyl-1H-pyrazole-3-carboxamide] | – | class (class 1-3 by percent of control at 10^-7 M or IC50): 3 (Class 3 The value of percent of control at 10^−7 M was more than 60% or the value of IC50 was more than 200 nM.)
Cc1ccc(S(=O)(=O)n2ccc(C(=O)N[C@H]3CC[C@@H](Nc4nccc(N(C)C)n4)CC3)c2)cc1 [compound 901, N-(cis-4-{[4-(dimethylamino)pyrimidin-2-yl]amino}cyclohexyl)-1-[(4-methylphenyl)sulfonyl]-1H-pyrrole-3-carboxamide] | 2 (Class 2: The value of percent of control at 10^−7 M was from 40% to 60% or the value of IC′50 was from 50 nM to 200 nM.) | –
Cc1ccc(C(=O)N[C@H]2CC[C@@H](Nc3ncc(C)c(N(C)C)n3)CC2)cc1 [compound 2939, N-(cis-4-{[4-(dimethylamino)-5-methylpyrimidin-2-yl]amino}cyclohexyl)-4-methylbenzamide] | – | class [1]: 1 (Class 1: The value of percent of control at 10^−7 M was less than 40% or the value of IC50 was less than 50 nM.)
Cc1cc(NC(=S)N[C@H]2CC[C@@H](Nc3nc4c(c(N(C)C)n3)CCCC4)CC2)ccc1Br [compound 2047] | – | class [5]: 3 (Class 3 The value of percent of control at 10^−7 M was more than 60% or the value of IC50 was more than 200 nM.)
CSc1ccc(CN[C@H]2CC[C@@H](Nc3nccc(N(C)C)n3)CC2)cc1 [compound 1239] | 3 (Class 3 The value of percent of control at 10^−7 M was more than 60% or the value of IC50 was more than 200 nM.) | –
CSc1ccc(NC(=O)N[C@H]2CC[C@@H](Nc3cc(N(C)C)c4ccccc4n3)CC2)cc1 [compound 2095] | 3 (Class 3 The value of percent of control at 10^−7 M was more than 60% or the value of IC50 was more than 200 nM.) | –
